Laboratory results: US12343326B2, “Psychoactive medicines and their use for treating psychiatric and neurological conditions and disorders” (Transcend Therapeutics, Inc., priority 2021, dated 2025)

Columns and labels:
Test in all cases: β-arrestin based GPCR screen (PathHunter / GPCRmax), antagonist mode
168 GPCRs [1] = molecular target: 168 GPCRs (Homo sapiens, UniProt P46663); conditions: BDKRB1, Antagonist
168 GPCRs [2] = molecular target: 168 GPCRs (Homo sapiens, UniProt P32745)
168 GPCRs [3] = molecular target: 168 GPCRs (Homo sapiens, UniProt Q16581); conditions: C3AR1, Antagonist
168 GPCRs [4] = molecular target: 168 GPCRs (Homo sapiens, UniProt P46092); conditions: CCR10, Antagonist
168 GPCRs [5] = molecular target: 168 GPCRs (Homo sapiens, UniProt P25116); conditions: F2R; Antagonist; 1 uM
168 GPCRs [6] = molecular target: 168 GPCRs (Homo sapiens, UniProt Q99500)
168 GPCRs [7] = molecular target: T1, 168 GPCRs (Homo sapiens, UniProt P32248); conditions: CCR7, Antagonist
T1 sequence (P32248 25-378): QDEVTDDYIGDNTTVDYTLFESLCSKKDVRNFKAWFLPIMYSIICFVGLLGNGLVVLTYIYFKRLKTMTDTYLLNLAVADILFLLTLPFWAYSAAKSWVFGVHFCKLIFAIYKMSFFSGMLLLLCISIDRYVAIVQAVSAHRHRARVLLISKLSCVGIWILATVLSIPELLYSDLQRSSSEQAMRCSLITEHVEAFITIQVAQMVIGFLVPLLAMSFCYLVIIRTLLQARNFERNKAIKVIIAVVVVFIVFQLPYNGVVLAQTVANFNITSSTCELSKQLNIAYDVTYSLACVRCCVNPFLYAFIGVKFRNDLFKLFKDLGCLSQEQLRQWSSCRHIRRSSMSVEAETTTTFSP

168 GPCRs [8] = molecular target: 168 GPCRs (Homo sapiens, UniProt P08588); conditions: ADRB1, Antagonist
168 GPCRs [9] = molecular target: 168 GPCRs (Homo sapiens, UniProt O43193); conditions: MLNR
168 GPCRs [10] = molecular target: 168 GPCRs (Homo sapiens, UniProt P43116)
168 GPCRs [11] = molecular target: 168 GPCRs (Homo sapiens, UniProt P25090)
168 GPCRs [12] = molecular target: 168 GPCRs (Homo sapiens, UniProt P30872)
168 GPCRs [13] = molecular target: 168 GPCRs (Homo sapiens, UniProt Q99705)
168 GPCRs [14] = molecular target: 168 GPCRs (Homo sapiens, UniProt P33032); conditions: MC5R
168 GPCRs [15] = molecular target: 168 GPCRs (Homo sapiens, UniProt P07550); conditions: ADRB2, Antagonist
168 GPCRs [16] = molecular target: 168 GPCRs (Homo sapiens, UniProt P47898); conditions: HTR5A
168 GPCRs [17] = molecular target: 168 GPCRs (Homo sapiens, UniProt P41143)
168 GPCRs [18] = molecular target: 168 GPCRs (Homo sapiens, UniProt P25105); conditions: PTAFR
168 GPCRs [19] = molecular target: 168 GPCRs (Homo sapiens, UniProt P51681); conditions: CCR5, CCR5, Antagonist
168 GPCRs [20] = molecular target: 168 GPCRs (Homo sapiens, UniProt P35408)

Chain of 168 GPCRs (Homo sapiens, UniProt P46663) (P46663 whole entry): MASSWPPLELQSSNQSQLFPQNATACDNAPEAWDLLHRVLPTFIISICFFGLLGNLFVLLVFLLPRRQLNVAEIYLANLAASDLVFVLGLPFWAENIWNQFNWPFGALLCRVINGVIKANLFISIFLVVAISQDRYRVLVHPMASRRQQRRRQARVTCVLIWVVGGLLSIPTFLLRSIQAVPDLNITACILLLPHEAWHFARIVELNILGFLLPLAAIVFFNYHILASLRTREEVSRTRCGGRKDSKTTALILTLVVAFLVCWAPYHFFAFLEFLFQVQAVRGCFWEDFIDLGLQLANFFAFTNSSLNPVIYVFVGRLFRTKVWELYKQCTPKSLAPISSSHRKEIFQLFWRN
Chain of 168 GPCRs (Homo sapiens, UniProt P32745) (P32745 whole entry): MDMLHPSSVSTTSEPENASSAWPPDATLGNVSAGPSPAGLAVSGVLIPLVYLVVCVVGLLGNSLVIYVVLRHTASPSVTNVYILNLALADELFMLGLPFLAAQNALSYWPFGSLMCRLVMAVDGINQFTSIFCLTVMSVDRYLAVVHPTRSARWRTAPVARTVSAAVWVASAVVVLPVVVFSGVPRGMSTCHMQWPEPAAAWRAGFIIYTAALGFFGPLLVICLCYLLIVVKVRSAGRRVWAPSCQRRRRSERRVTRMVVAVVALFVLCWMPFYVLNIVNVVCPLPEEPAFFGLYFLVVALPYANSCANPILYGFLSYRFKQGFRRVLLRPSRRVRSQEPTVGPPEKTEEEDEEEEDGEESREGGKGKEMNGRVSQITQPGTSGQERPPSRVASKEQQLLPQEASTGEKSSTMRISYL
Chain of 168 GPCRs (Homo sapiens, UniProt P41143) (P41143 whole entry): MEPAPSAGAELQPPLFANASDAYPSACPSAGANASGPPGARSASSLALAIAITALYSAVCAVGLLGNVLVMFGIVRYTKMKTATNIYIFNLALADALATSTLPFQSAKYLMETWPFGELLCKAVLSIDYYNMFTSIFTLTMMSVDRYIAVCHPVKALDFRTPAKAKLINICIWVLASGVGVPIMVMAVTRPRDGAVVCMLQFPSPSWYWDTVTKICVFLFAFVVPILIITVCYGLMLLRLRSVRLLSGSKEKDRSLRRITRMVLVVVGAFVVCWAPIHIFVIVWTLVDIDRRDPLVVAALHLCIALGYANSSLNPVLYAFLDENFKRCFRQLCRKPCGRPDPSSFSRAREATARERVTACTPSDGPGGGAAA
Chain of 168 GPCRs (Homo sapiens, UniProt Q99705) (Q99705 whole entry): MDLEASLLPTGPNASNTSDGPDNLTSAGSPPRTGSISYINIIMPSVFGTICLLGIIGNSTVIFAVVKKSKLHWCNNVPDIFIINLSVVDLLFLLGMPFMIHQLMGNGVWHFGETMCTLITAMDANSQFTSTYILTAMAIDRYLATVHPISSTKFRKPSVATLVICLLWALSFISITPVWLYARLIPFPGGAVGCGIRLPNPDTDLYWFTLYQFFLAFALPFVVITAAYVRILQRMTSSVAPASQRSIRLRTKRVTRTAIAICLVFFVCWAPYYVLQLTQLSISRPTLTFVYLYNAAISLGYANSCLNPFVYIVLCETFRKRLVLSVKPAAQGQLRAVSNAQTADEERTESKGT
Chain of 168 GPCRs (Homo sapiens, UniProt P51681) (P51681 whole entry): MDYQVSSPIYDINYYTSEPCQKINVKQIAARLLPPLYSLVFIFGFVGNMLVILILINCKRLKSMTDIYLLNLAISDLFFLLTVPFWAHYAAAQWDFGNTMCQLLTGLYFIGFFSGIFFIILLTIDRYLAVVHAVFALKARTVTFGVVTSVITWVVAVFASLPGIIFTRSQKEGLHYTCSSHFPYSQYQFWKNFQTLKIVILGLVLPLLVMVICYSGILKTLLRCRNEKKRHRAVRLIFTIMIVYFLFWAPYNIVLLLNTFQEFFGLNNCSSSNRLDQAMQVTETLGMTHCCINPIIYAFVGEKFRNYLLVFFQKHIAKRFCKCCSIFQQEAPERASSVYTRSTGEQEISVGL
Chain of 168 GPCRs (Homo sapiens, UniProt P47898) (P47898 whole entry): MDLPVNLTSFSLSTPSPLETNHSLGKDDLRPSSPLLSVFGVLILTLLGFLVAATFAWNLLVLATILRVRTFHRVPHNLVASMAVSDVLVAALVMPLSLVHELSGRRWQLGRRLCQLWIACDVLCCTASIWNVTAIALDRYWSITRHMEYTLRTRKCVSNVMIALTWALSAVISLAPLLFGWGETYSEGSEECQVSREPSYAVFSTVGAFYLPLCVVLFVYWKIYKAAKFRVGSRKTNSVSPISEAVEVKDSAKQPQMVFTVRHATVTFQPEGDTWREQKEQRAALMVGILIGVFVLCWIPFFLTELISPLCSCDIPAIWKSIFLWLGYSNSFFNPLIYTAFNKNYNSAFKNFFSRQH
Chain of 168 GPCRs (Homo sapiens, UniProt P33032) (P33032 whole entry): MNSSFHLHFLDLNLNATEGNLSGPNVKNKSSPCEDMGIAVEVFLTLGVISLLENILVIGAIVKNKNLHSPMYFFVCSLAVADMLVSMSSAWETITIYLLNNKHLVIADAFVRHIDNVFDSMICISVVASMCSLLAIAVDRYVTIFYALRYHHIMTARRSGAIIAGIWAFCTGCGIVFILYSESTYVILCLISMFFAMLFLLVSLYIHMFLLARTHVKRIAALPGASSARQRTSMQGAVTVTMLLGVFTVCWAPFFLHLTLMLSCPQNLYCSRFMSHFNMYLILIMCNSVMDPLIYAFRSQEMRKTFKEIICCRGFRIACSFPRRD
Chain of 168 GPCRs (Homo sapiens, UniProt P07550) (P07550 whole entry): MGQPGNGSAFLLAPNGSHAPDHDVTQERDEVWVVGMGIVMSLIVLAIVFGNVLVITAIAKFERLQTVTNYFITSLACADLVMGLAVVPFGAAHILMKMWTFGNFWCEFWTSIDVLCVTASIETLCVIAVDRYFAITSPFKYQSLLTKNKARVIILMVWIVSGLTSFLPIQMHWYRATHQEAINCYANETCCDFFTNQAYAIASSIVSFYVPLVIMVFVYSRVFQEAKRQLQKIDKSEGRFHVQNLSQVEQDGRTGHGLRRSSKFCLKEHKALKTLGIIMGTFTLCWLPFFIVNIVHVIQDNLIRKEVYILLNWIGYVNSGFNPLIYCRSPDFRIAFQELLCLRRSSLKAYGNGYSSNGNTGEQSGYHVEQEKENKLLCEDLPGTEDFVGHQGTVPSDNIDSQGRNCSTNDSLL
Chain of 168 GPCRs (Homo sapiens, UniProt P08588) (P08588 whole entry): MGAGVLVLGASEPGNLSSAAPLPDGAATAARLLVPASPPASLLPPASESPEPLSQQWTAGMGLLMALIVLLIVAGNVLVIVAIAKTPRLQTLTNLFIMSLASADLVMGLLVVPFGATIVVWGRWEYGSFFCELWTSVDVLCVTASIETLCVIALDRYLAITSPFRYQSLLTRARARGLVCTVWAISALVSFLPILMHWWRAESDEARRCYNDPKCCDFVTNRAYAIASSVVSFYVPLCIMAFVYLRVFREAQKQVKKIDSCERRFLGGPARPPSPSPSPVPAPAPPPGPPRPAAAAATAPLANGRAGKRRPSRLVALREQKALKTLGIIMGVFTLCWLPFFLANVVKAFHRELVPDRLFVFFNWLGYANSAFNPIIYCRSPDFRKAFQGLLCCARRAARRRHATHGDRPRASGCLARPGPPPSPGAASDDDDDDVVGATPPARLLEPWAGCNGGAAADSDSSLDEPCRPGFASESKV
Chain of 168 GPCRs (Homo sapiens, UniProt P25105) (P25105 whole entry): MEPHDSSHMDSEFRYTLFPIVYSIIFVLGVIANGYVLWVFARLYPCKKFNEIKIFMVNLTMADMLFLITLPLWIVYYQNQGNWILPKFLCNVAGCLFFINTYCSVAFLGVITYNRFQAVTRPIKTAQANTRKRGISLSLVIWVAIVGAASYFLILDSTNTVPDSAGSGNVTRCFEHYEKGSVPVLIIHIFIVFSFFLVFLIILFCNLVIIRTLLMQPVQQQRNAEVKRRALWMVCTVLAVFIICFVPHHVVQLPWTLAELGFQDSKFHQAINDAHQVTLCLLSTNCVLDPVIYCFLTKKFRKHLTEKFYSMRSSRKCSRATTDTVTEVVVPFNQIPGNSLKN
Chain of 168 GPCRs (Homo sapiens, UniProt P25090) (P25090 whole entry): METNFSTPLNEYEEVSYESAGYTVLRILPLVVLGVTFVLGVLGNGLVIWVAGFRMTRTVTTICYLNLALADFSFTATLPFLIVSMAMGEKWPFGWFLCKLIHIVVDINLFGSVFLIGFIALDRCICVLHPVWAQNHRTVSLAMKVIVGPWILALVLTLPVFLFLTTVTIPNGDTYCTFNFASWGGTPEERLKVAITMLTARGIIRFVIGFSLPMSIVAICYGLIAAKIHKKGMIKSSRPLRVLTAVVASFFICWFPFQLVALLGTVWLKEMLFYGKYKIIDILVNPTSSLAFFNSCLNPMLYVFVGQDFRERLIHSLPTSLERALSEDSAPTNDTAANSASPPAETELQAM
Chain of 168 GPCRs (Homo sapiens, UniProt P30872) (P30872 whole entry): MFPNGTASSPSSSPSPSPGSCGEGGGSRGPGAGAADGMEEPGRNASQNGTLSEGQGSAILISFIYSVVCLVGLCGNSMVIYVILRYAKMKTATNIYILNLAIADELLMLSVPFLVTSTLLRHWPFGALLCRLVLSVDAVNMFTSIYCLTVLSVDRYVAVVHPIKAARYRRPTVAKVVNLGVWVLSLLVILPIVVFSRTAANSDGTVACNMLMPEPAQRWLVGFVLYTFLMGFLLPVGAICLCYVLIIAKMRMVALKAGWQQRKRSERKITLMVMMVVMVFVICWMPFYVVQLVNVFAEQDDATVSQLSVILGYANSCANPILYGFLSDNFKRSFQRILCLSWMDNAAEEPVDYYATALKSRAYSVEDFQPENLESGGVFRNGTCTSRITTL
Chain of 168 GPCRs (Homo sapiens, UniProt O43193) (O43193 whole entry): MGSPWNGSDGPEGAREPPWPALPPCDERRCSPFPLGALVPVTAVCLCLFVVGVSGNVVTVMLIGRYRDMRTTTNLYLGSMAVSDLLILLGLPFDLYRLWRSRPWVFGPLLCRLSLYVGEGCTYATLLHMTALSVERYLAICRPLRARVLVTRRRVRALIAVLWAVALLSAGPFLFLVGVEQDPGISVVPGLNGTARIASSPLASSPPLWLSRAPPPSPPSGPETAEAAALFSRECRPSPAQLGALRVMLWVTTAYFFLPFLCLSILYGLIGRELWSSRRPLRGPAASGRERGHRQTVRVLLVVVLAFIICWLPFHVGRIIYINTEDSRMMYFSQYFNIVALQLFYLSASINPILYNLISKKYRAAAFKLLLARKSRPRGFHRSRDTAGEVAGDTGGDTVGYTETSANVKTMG

For `CNC(C)C(=O)c1ccc2c(c1)OCO2` (stereo not drawn) [methylone, 3,4-methylenedioxy-N-methylcathinone], which activity at 1 µM (168 GPCRs [1]; 1 uM) is on record?
The activity at 1 µM was 2.8%.

And the activity at 10 µM (168 GPCRs [1]; 10 uM)?
The activity at 10 µM was 12.1%.

What about the activity at 10 µM (168 GPCRs [2]; SSTR3, Antagonist mode, 10 uM) of the same compound?
The activity at 10 µM was 8%.

What about the activity at 1 µM (168 GPCRs [2]; SSTR3, Antagonist, 1 uM) of the same compound?
The activity at 1 µM was 13.2%.

What about the activity at 1 µM (168 GPCRs [3]; 1 uM) of the same compound?
Its activity at 1 µM is 2.5%.

What about the activity at 10 µM (168 GPCRs [3]; 10 uM) of the same compound?
The activity at 10 µM was 0.3%.

What about the activity at 1 µM (168 GPCRs [4]; 1 uM) of the same compound?
The activity at 1 µM was 5.4%.

And the activity at 10 µM (168 GPCRs [4]; 10 uM)?
Its activity at 10 µM is 2.6%.

What about the activity at 1 µM (168 GPCRs [5]) of the same compound?
Its activity at 1 µM is -11.6%.

What about the activity at 10 µM (168 GPCRs [6]; EDG3, Antagonist mode, 10 uM) of the same compound?
The activity at 10 µM was 13.6%.

What about the activity at 1 µM (168 GPCRs [6]; EDG3, Antagonist, 1 uM) of the same compound?
Its activity at 1 µM is 25.8%.

What about the activity at 1 µM (168 GPCRs [7]; 1 uM) of the same compound?
Its activity at 1 µM is -8.3%.

And the activity at 10 µM (168 GPCRs [7]; 10 uM)?
The activity at 10 µM was -3.4%.

What about the activity at 1 µM (168 GPCRs [8]; 1 uM) of the same compound?
Its activity at 1 µM is -0.8%.

What about the activity at 10 µM (168 GPCRs [8]; 10 uM) of the same compound?
Its activity at 10 µM is -1.2%.

What about the activity at 10 µM (168 GPCRs [9]; Antagonist mode, 10 uM) of the same compound?
The activity at 10 µM was 12.3%.

And the activity at 1 µM (168 GPCRs [9]; Antagonist, 1 uM)?
Its activity at 1 µM is 15.6%.

And the activity at 10 µM (168 GPCRs [10]; PTGER2, Antagonist mode, 10 uM)?
The activity at 10 µM was -4.4%.

What about the activity at 1 µM (168 GPCRs [10]; PTGER2, Antagonist, 1 uM) of the same compound?
Its activity at 1 µM is 12.7%.

And the activity at 10 µM (168 GPCRs [11]; FPRL1, Antagonist mode, 10 uM)?
Its activity at 10 µM is 3.9%.

What about the activity at 1 µM (168 GPCRs [11]; FPRL1, Antagonist, 1 uM) of the same compound?
Its activity at 1 µM is 12.3%.

What about the activity at 10 µM (168 GPCRs [12]; SSTR1, Antagonist mode, 10 uM) of the same compound?
Its activity at 10 µM is 20.9%.

And the activity at 1 µM (168 GPCRs [12]; SSTR1, Antagonist, 1 uM)?
The activity at 1 µM was 32.4%.

What about the activity at 10 µM (168 GPCRs [13]; MCHR1, Antagonist mode, 10 uM) of the same compound?
Its activity at 10 µM is -18.3%.

And the activity at 1 µM (168 GPCRs [13]; MCHR1, Antagonist, 1 uM)?
The activity at 1 µM was -12.2%.

What about the activity at 10 µM (168 GPCRs [14]; Antagonist mode, 10 uM) of the same compound?
The activity at 10 µM was -6.3%.

What about the activity at 1 µM (168 GPCRs [14]; Antagonist, 1 uM) of the same compound?
Its activity at 1 µM is 1.7%.

What about the activity at 1 µM (168 GPCRs [15]; 1 uM) of the same compound?
Its activity at 1 µM is 18.1%.

What about the activity at 10 µM (168 GPCRs [15]; 10 uM) of the same compound?
The activity at 10 µM was 20.4%.

And the activity at 10 µM (168 GPCRs [16]; Antagonist mode, 10 uM)?
Its activity at 10 µM is 1.6%.

And the activity at 1 µM (168 GPCRs [16]; Antagonist, 1 uM)?
Its activity at 1 µM is 9.8%.

What about the activity at 10 µM (168 GPCRs [17]; OPRD1, Antagonist mode, 10 uM) of the same compound?
The activity at 10 µM was 3.5%.

And the activity at 1 µM (168 GPCRs [17]; OPRD1, Antagonist, 1 uM)?
Its activity at 1 µM is -2.7%.

And the activity at 10 µM (168 GPCRs [18]; Antagonist mode, 10 uM)?
Its activity at 10 µM is -6.7%.

And the activity at 1 µM (168 GPCRs [18]; Antagonist, 1 uM)?
Its activity at 1 µM is 2%.

And the activity at 1 µM (168 GPCRs [19]; 1 uM)?
Its activity at 1 µM is 1.7%.

And the activity at 10 µM (168 GPCRs [19]; 10 uM)?
Its activity at 10 µM is -0.5%.

And the activity at 10 µM (168 GPCRs [20]; PTGER4, Antagonist mode, 10 uM)?
Its activity at 10 µM is 4.3%.

What about the activity at 1 µM (168 GPCRs [20]; PTGER4, Antagonist, 1 uM) of the same compound?
The activity at 1 µM was 10.1%.
